Measured values reported in patent US20230339991A1, “HYPOXIA-ACTIVATED DNA ALKYLATING AGENT AND MEDICAL USE THEREOF” (ASCENTAWITS PHARMACEUTICALS, LTD., priority 2020, published 2023).
Values joined by “and” are separate entries in the source; they are usually repeats but may differ in a detail not shown here. Equal values may be shown once. Read-outs that look alike come from different tables or passages of the source. Marks after values point to notes of the source that are not given here.

Assays:
[1] = system: PSN-1 cells; experiment: Clonogenic assay, PSN-1; type: cell-based, human; settings: for IC90: Homo sapiens, PSN1, 3 h; for HCR: IC90 ratio normoxic/N2
Experimental: The following PSN-1 cells, PANC1 cells, MiaPaCa-2 cells, H460 cells, DLD-1 WT (wild type) cells, DLD-1 BRCA2 KO (BRCA2 deletion) cells were seeded in 10 cm vitreous cell culture plates at specific cell numbers and incubated for 2 days at 37° C. and under the conditions of 5% CO2, 95% air and 100% relative humidity. On day 3, test compounds TH302 or AST-002-P2 at the specific concentrations were added to the cells, and incubated for 3 hours together with the cells under normoxic (21% O2) and hypoxic conditions (<0.01% O2), respectively. After cells were stimulated by compounds, the cells were washed once with 1×PBS and digested into single cells with pancreatic enzymes for cell counting. The above cells in specific cell numbers were reseeded in a new culture plate and cultured for 7 days to perform single cell colony formation. When single cells in compound culture plates stimulated under normoxic conditions proliferated to about 50 cells, the cultures were removed and stained with 0.5% crystal violet for 40 minutes. After staining, cells were counted for colonies using Colony Counter (VWR) and the IC90 was calculated.

[2] = Blood-brain barrier experiment, brain and plasma concentrations after IV dosing; type: in vivo, CD-1 mice; settings: CD-1, mouse; for Kp at 0.25 h / Kp at 2 h: brain/plasma, iv, 1 mg/kg; for Kp at 0.25 h: read-out: Mean Ratio (Brain/Plasma); for Kp at 2 h: single animals, read-out: Ratio (Brain/Plasma); for Cmax / Tmax: brain tissue; for Cmax / Tmax / AUC: IV 1 mg/kg; for AUC: plasma
[3] = target: T1, CYP450R enzyme (Homo sapiens, UniProt P16435); experiment: Hypoxia-dependent reduction experiments; type: biochemical; settings: for reduction rate compared (compound A vs TH-302): NADPH and CYP 450R enzymes
T1 sequence (P16435 1-677): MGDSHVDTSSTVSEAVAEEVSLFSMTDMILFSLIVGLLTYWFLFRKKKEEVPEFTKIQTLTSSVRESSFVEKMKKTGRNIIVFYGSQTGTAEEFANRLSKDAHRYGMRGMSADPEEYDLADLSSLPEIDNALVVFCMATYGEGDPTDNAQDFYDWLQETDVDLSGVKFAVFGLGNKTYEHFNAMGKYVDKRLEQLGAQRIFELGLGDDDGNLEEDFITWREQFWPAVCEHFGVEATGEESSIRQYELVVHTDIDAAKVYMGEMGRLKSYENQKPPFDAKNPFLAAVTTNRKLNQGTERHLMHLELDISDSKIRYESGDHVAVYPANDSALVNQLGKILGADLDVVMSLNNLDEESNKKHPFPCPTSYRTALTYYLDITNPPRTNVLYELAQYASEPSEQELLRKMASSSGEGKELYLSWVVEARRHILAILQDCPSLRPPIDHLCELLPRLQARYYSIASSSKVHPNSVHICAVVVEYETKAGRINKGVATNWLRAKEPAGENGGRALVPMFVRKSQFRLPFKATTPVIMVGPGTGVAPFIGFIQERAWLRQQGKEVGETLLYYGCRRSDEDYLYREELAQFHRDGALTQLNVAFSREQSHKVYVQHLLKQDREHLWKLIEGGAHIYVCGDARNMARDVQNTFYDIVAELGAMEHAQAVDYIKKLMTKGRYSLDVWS
Experimental: The ingredients were added to each test tube without the addition of NADPH. Then 50 μl of sample from condition B was transferred to 100 μl acetonitrile (T=0). For samples to be tested under hypoxic conditions, the test tubes were placed in an hypoxic chamber (BACTRON anaerobic/environmental chamber). The reaction was initiated by adding NADPH to test tubes A and C and the sample was then placed at 37° C. For samples to be tested in air, the test tubes were placed in a hot plate at 37° C. After 30 minutes and 2 hours of incubation, 50 μl of samples were taken from each test tube and mixed with 100 μl acetonitrile. Any protein precipitate was removed by spinning all test tubes and placed into HPLC vials for analysis. The results were compared to the calibration curve of the real standard.

[4] = Plasma stability, dog; settings: for Remaining percentage: after 30 minutes
Experimental: The frozen plasma was immediately melted in a water bath of 37° C. The plasma was centrifuged at 3, 220 g for 10 minutes to remove the blood clots and the supernatant was collected into a new test tube. The pH of the plasma was checked and recorded. Note: a. Only plasma that has been melted no more than twice since arrival was used; b. Only plasma in the range of pH 7 to pH 8 was used.
1 mM of working solutions of the test compound and the control compound mevinolin were prepared in DMSO. 1 mM of the working solution of the control compound solution in […] was prepared in acetonitrile. 4 μL of the working solution was added to 796 μL of pre-incubated plasma to achieve 5 μM of final concentration. The final concentration of solvent was 0.5%.
The aliquots of 50 μL of the standard addition plasma were added to new test tubes and incubated in the water bath of 37° C. at approximately 60 rpm for 2 hours. The assay is performed in duplicate. At the end of the two hour incubation, 300 μL of quenched solution at room temperature (acetonitrile containing internal standards (acetonitrile, 100 nM Alprazolam, 500 nM Labetalol and 2 μM ketoprofen)) was added to terminate the reaction. Samples at time 0 were prepared by adding 50 μL of standard addition plasma to the new test tubes with 300 μL of quenched solution at room temperature. The test tubes were mixed by vortex for 5 minutes. The samples in the plates were centrifuged at 3, 220×g for 30 minutes at 4° C. to precipitate the proteins. 100 μL of supernatant was transferred to a new plate. The supernatant was diluted with 100 μL of water, mixed well and analysed using LC-MS/MS.

[5] = Plasma stability, monkey; type: in vitro ADME
Experimental: The pH of the plasma was checked and recorded. Note: a.
The final concentration of solvent was 0.5%.
The assay is performed in duplicate.

[6] = system: HuPrime model GA6201 human gastric cancer subcutaneous transplantation PDX tumor; experiment: GA6201 human gastric cancer subcutaneous PDX model; type: in vivo, BALB/c nude mice
[7] = 21% O2, read-out: IC90 Normoxia
[8] = <0.01% O2, read-out: IC90 Hypoxia

Question: Which results are given for `O=[N+]([O-])c1ccc([C@@H](OP(=O)(N2CC2)N2CC2)C(F)(F)F)c2ccccc12` (single isomer, unassigned) [Compound C]?
Answer: IC90 [1, 7]: > 1000 nM; IC90 [1, 8]: 286 nM; HCR [1]: >3.5; Kp at 0.25 h [2]: 0.86; Kp at 2 h [2]: 1.35; Cmax [2]: 445 ng/g; Tmax [2]: 4.8 min; AUC [2]: 190 ng·h/mL

Question: Which results are given for `O=[N+]([O-])c1ccc(C(OP(=O)(N2CC2)N2CC2)C(F)(F)F)c2ccccc12` (racemic) [Compound A]?
Answer: reduction rate compared (compound A vs TH-302) [3]: similar; hypoxia-dependent reduction reaction ([3]; in the presence of NADPH and CYP 450R enzymes, 37° C.): showed a hypoxia-dependent reduction reaction; Remaining percentage (%) ([4]; Dog plasma, 15 min): 107 ± 2.54%; Remaining percentage (%) ([4]; Dog plasma, 60 min): 101 ± 5.20%; Remaining percentage (%) ([4]; Dog plasma, 90 min): 105 ± 3.67%; Remaining percentage (%) ([4]; Dog plasma, 120 min): 98.9% and 98.9 ± 0.476%; Remaining percentage (%) ([4]; Dog plasma, 2 h time course, 0 min): 100%; Remaining percentage ([4]; Dog plasma): 85.04%; t½ ([4]; Dog plasma, in vitro): >373* min; Remaining percentage (%) ([4]; Dog plasma, time course, 30 min): 105 ± 1.27%; half-life at 5 µM ([4]; dog plasma): > 373 min; plasma stability ([4]; dog plasma): stable; Remaining percentage (%) ([5]; Monkey plasma, 15 min): 97.9 ± 3.72%; Remaining percentage (%) ([5]; Monkey plasma, 60 min): 103 ± 4.19%; Remaining percentage (%) ([5]; Monkey plasma, 90 min): 92.3 ± 2.15%; Remaining percentage (%) ([5]; Monkey plasma, 120 min): 87.4% and 87.4 ± 1.59%; Remaining percentage (%) ([5]; Monkey plasma, 2 h time course, 0 min): 100%; t½ ([5]; Monkey plasma, in vitro): >373* min; half-life at 5 µM ([5]; Monkey plasma, in vitro, read-out: t½): > 373 min; Remaining percentage (%) ([5]; Monkey plasma, time course, 30 min): 107 ± 2.78%; plasma stability ([5]; monkey plasma): stable; effect of tumor growth inhibition compared with isocyclophosphamide ([6]; GA6201 PDX): significant advantages; tumor volume ([6]; Group 06, 5-50 mg/kg regimen, day 7): 123.19 mm^3; tumor volume ([6]; Group 06, 5-50 mg/kg regimen, day 17): 219.91 mm^3; tumor volume ([6]; Group 06, 5-50 mg/kg regimen, day 21): 246.57 mm^3; tumor volume ([6]; Group 06, 5-50 mg/kg regimen, day 24): 271.72 mm^3; tumor volume ([6]; Group 06, 5-50 mg/kg regimen, day 31): 270.68 mm^3; tumor volume ([6]; Group 06, 5-50 mg/kg regimen, day 35): 299.31 mm^3; tumor volume ([6]; Group 06, 5-50 mg/kg regimen, day 38): 277.17 mm^3; tumor volume ([6]; Group 06, 5-50 mg/kg regimen, day 45): 342.08 mm^3; tumor volume ([6]; Group 06, 5-50 mg/kg regimen, day 49): 287.47 mm^3

Question: Which IC90 [1, 7] does the source give for `Cn1c(COP(=O)(NCCBr)NCCBr)cnc1[N+](=O)[O-]` [TH-302, Evofosfamide] here?
Answer: Its IC90 is 30500 nM.

Question: What about the IC90 [1, 8] of the same compound?
Answer: Its IC90 is 164 nM.

Question: What about the HCR [1] of the same compound?
Answer: Its HCR is 186.

Question: What about the “reduction rate compared (compound A vs TH-302)” value [3] of the same compound?
Answer: Its value is “similar”.

Question: And the tumor volume ([6]; Group 02, 60 mg/kg i.p., day 3)?
Answer: Its tumor volume is 122.22 mm^3.

Question: And the tumor volume ([6]; Group 02, 60 mg/kg i.p., day 7)?
Answer: The tumor volume was 129.39 mm^3.

Question: And the tumor volume ([6]; Group 02, 60 mg/kg i.p., day 10)?
Answer: Its tumor volume is 175.00 mm^3.

Question: And the tumor volume ([6]; Group 02, 60 mg/kg i.p., day 14)?
Answer: Its tumor volume is 190.74 mm^3.

Question: And the tumor volume ([6]; Group 02, 60 mg/kg i.p., day 17)?
Answer: Its tumor volume is 189.23 mm^3.

Question: What about the tumor volume ([6]; Group 02, 60 mg/kg i.p., day 21) of the same compound?
Answer: The tumor volume was 217.96 mm^3.

Question: And the tumor volume ([6]; Group 02, 60 mg/kg i.p., day 24)?
Answer: Its tumor volume is 225.66 mm^3.

Question: And the tumor volume ([6]; Group 02, 60 mg/kg i.p., day 28)?
Answer: Its tumor volume is 247.04 mm^3.

Question: What about the tumor volume ([6]; Group 02, 60 mg/kg i.p., day 31) of the same compound?
Answer: Its tumor volume is 265.76 mm^3.

Question: And the tumor volume ([6]; Group 02, 60 mg/kg i.p., day 35)?
Answer: The tumor volume was 324.51 mm^3.

Question: What about the tumor volume ([6]; Group 02, 60 mg/kg i.p., day 38) of the same compound?
Answer: The tumor volume was 371.02 mm^3.

Question: And the tumor volume ([6]; Group 02, 60 mg/kg i.p., day 42)?
Answer: The tumor volume was 403.47 mm^3.

Question: And the tumor volume ([6]; Group 02, 60 mg/kg i.p., day 45)?
Answer: Its tumor volume is 484.83 mm^3.

Question: And the tumor volume ([6]; Group 02, 60 mg/kg i.p., day 49)?
Answer: Its tumor volume is 578.60 mm^3.

Question: And the tumor volume ([6]; Group 02, 60 mg/kg, QDx5/week × 2 wks, i.p., day 0)?
Answer: The tumor volume was 94.15 mm^3.

Question: Which Kp at 0.25 h [2] does the source give for `O=[N+]([O-])c1ccc([C@H](OP(=O)(N2CC2)N2CC2)C(F)(F)F)c2ccccc12` [Compound B] here?
Answer: Its Kp at 0.25 h is 1.59.

Question: What about the Kp at 2 h [2] of the same compound?
Answer: Its Kp at 2 h is 1.38.

Question: And the Cmax [2]?
Answer: The Cmax was 983 ng/g.

Question: What about the Tmax [2] of the same compound?
Answer: The Tmax was 4.8 min.

Question: And the AUC [2]?
Answer: Its AUC is 289 ng·h/mL.

Question: Which results are given for `CC(OP(=O)(N1CC1)N1CC1)c1ccc([N+](=O)[O-])c2ccccc12` (stereo not drawn) [Compound D]?
Answer: Remaining percentage ([4]; Dog plasma): 91.95%; plasma stability ([4]; dog plasma): relatively stable; Remaining percentage ([5]; Monkey plasma, after 30 minutes): 87.66%
